Calls of active or inactive are those of the source. The calls are words filed in the database; no cut-off is given here.
Assays:
OVCAR-8 [1] = assay: Growth inhibition of human OVCAR-8 cells measured after 48 hrs by sulforhodamine B assay; assay type: functional; settings: for CC50: read-out: LC50 (the source's name)
OVCAR-8 [2] = assay: Growth inhibition of human OVCAR-8 cells at 10 uM measured after 48 hrs by sulforhodamine B assay; assay type: functional, cell-based
SK-MEL-5 [3] = assay: Growth inhibition of human SK-MEL-5 cells measured after 48 hrs by sulforhodamine B assay; assay type: functional; settings: for CC50: read-out: LC50 (the source's name)
NCI-H522 [4] = assay: Growth inhibition of human NCI-H522 cells measured after 48 hrs by sulforhodamine B assay; assay type: functional; settings: for CC50: read-out: LC50 (the source's name)
MDA-MB-435 [5] = assay: Growth inhibition of human MDA-MB-435 cells measured after 48 hrs by sulforhodamine B assay; assay type: functional; settings: for CC50: read-out: LC50 (the source's name)
UACC-62 [6] = assay: Growth inhibition of human UACC-62 cells at 10 uM measured after 48 hrs by sulforhodamine B assay; assay type: functional, cell-based
K562 [7] = assay: Growth inhibition of human K562 cells measured after 48 hrs by sulforhodamine B assay; assay type: functional; settings: for CC50: read-out: LC50 (the source's name)
COLO 205 [8] = assay: Growth inhibition of human COLO 205 cells at 10 uM measured after 48 hrs by sulforhodamine B assay; assay type: functional, cell-based
MCF7 [9] = assay: Growth inhibition of human MCF7 cells at 10 uM measured after 48 hrs by sulforhodamine B assay; assay type: functional, cell-based
K562 [10] = assay: Growth inhibition of human K562 cells at 10 uM measured after 48 hrs by sulforhodamine B assay; assay type: functional, cell-based
NCI-H522 [11] = assay: Growth inhibition of human NCI-H522 cells at 10 uM measured after 48 hrs by sulforhodamine B assay; assay type: functional, cell-based
MDA-MB-435 [12] = assay: Growth inhibition of human MDA-MB-435 cells at 10 uM measured after 48 hrs by sulforhodamine B assay; assay type: functional, cell-based
COLO 205 [13] = assay: Growth inhibition of human COLO 205 cells measured after 48 hrs by sulforhodamine B assay; assay type: functional; settings: for CC50: read-out: LC50 (the source's name)
UACC-62 [14] = assay: Growth inhibition of human UACC-62 cells measured after 48 hrs by sulforhodamine B assay; assay type: functional; settings: for CC50: read-out: LC50 (the source's name)
SK-MEL-5 [15] = assay: Growth inhibition of human SK-MEL-5 cells at 10 uM measured after 48 hrs by sulforhodamine B assay; assay type: functional, cell-based
MCF7 [16] = assay: Growth inhibition of human MCF7 cells measured after 48 hrs by sulforhodamine B assay; assay type: functional
Sus scrofa [17] = species: Sus scrofa; assay: Inhibition of porcine brain tubulin polymerization assessed as microtubule destabilization by measuring relative fluorescence unit at 10 uM measured at 60 secs interval for 60 mins in presence of GTP by fluorescence assay
Sus scrofa [18] = species: Sus scrofa; assay: Inhibition of porcine brain tubulin polymerization assessed as microtubule destabilization at 10 uM measured at 60 secs interval for 60 mins in presence of GTP by fluorescence assay

SMILES | GI50 (OVCAR-8 [1]) [nM] | CC50 (OVCAR-8 [1]) [nM] | growth inhibition (GI) (OVCAR-8 [2]) | GI50 (SK-MEL-5 [3]) [nM] | CC50 (SK-MEL-5 [3]) [nM] | GI50 (NCI-H522 [4]) [nM] | CC50 (NCI-H522 [4]) [nM] | GI50 (MDA-MB-435 [5]) [nM] | CC50 (MDA-MB-435 [5]) [nM] | growth inhibition (GI) (UACC-62 [6]) | GI50 (K562 [7]) [nM] | CC50 (K562 [7]) [nM] | growth inhibition (GI) (COLO 205 [8]) | growth inhibition (GI) (MCF7 [9]) | growth inhibition (GI) (K562 [10]) | growth inhibition (GI) (NCI-H522 [11]) | growth inhibition (GI) (MDA-MB-435 [12]) | GI50 (COLO 205 [13]) [nM] | CC50 (COLO 205 [13]) [nM] | growth inhibition (GI) (SK-MEL-5 [15]) | other results
COc1ccc(/C=N/NC(=O)c2[nH]c3ccc(Br)cc3c2-c2ccccc2)o1 | 84.5 | > 100000 | Active | 139 | > 100000 | 18.4 | > 100000 | 77.5 | 747 | Active | 47 | > 100000 | Active | Active | Active | Active | Active | 187 | 659 | Active | GI50 (UACC-62 [14]): 53.5 nM; CC50 (UACC-62 [14]): > 100000 nM; GI50 (MCF7 [16]): 34.9 nM; LC50 (MCF7 [16]): > 100000 nM
O=C(N/N=C/c1ccc(-c2ccc(O)cc2)s1)c1[nH]c2ccc(Br)cc2c1-c1ccccc1 |  |  |  |  |  |  |  |  |  |  |  |  | Active |  |  | Active | Active |  |  | Active | growth inhibition (GI) (SK-MEL-5 [3]): Active; growth inhibition (GI) (NCI-H522 [4]): Active; growth inhibition (GI) (MDA-MB-435 [5]): Active; growth inhibition (GI) (COLO 205 [13]): Active
O=C(N/N=C/c1ccco1)c1[nH]c2ccc(Br)cc2c1-c1ccccc1 | 121 | > 100000 | Active | 88.7 | > 100000 | 23.9 | > 100000 | 34 | > 100000 | Active | 40.7 | > 100000 | Active | Active | Active | Active | Active | 113 | > 100000 | Active | RFU (Sus scrofa [17]): 50 a.u.; GI50 (UACC-62 [14]): 39.4 nM; CC50 (UACC-62 [14]): > 100000 nM; GI50 (MCF7 [16]): 41.4 nM; LC50 (MCF7 [16]): > 100000 nM
O=C(N/N=C/c1cccs1)c1[nH]c2ccc(Br)cc2c1-c1ccccc1 |  |  |  |  | > 10000 |  | > 10000 |  | > 10000 |  |  |  | Active |  |  | Active | Active |  | > 10000 | Active | growth inhibition (GI) (SK-MEL-5 [3]): Active; growth inhibition (GI) (NCI-H522 [4]): Active; growth inhibition (GI) (MDA-MB-435 [5]): Active; growth inhibition (GI) (COLO 205 [13]): Active
N#Cc1ccc(/C=N/NC(=O)c2[nH]c3ccc(Br)cc3c2-c2ccccc2)o1 | 209 | > 100000 | Active | 231 | > 100000 | 82.6 | > 100000 | 186 | > 100000 | Active | 69 | > 100000 | Active | Active | Active | Active | Active | 198 | 692 | Active | inhibition (Sus scrofa [18]): inactive; GI50 (UACC-62 [14]): 462 nM; CC50 (UACC-62 [14]): > 100000 nM; GI50 (MCF7 [16]): 324 nM; LC50 (MCF7 [16]): > 100000 nM
N#Cc1ccc(/C=N/NC(=O)c2[nH]c3ccc(Br)cc3c2-c2ccccc2)s1 |  |  |  | 124 | 4610 | 23 | > 100000 | 36 | > 100000 |  |  |  | Active |  |  | Active | Active | 195 | > 100000 | Active | inhibition (Sus scrofa [18]): inactive
O=C(N/N=C/c1ccc(B(O)O)s1)c1[nH]c2ccc(Br)cc2c1-c1ccccc1 |  |  |  | > 100 |  | > 100 |  | > 100 |  |  |  |  | Active |  |  | Active | Active | > 100 | 4980 | Active | 
O=C(O)c1ccc(-c2ccc(/C=N/NC(=O)c3[nH]c4ccc(Br)cc4c3-c3ccccc3)s2)cc1 |  |  |  |  |  |  |  |  |  |  |  |  | Active |  |  | Active | Active |  |  | Active | growth inhibition (GI) (SK-MEL-5 [3]): Active; growth inhibition (GI) (NCI-H522 [4]): Active; growth inhibition (GI) (MDA-MB-435 [5]): Active; growth inhibition (GI) (COLO 205 [13]): Active
O=C(N/N=C/c1ccc([N+](=O)[O-])s1)c1[nH]c2ccc(Br)cc2c1-c1ccccc1 |  |  |  | 214 | 1870 | 47.3 | > 100000 | 181 | 861 |  |  |  | Active |  |  | Active | Active | 203 | 795 | Active | inhibition (Sus scrofa [18]): inactive
O=C(N/N=C/c1ccsc1)c1[nH]c2ccc(Br)cc2c1-c1ccccc1 |  |  |  | > 100 | > 10000 | > 100 | > 10000 | 78.9 | > 10000 |  |  |  | Active |  |  | Active | Active | > 100 | > 10000 | Active | 
O=C(N/N=C/c1ccc([N+](=O)[O-])o1)c1[nH]c2ccc(Br)cc2c1-c1ccccc1 | 184 | 4190 | Active | 213 | 2620 | 37.4 | 5390 | 80.8 | 734 | Active | 54 | > 100000 | Active | Active | Active | Active | Active | 233 | 1790 | Active | RFU (Sus scrofa [17]): 45 a.u.; GI50 (UACC-62 [14]): 73.1 nM; CC50 (UACC-62 [14]): 5290 nM; GI50 (MCF7 [16]): 44.3 nM; LC50 (MCF7 [16]): > 100000 nM
O=C(N/N=C/c1ccc(-c2cccc([N+](=O)[O-])c2)o1)c1[nH]c2ccc(Br)cc2c1-c1ccccc1 |  |  |  |  |  |  | 9130 |  |  |  |  |  |  |  |  | Active |  |  |  |  | 

— ChEMBL document CHEMBL5576112, “Synthesis, in silico, in vitro evaluation of furanyl- and thiophenyl-3-phenyl-1H-indole-2-carbohydrazide derivatives as tubulin inhibitors and anticancer agents” (RSC Med Chem, 2024)
